Several values for one entry are separate records, joined by “and”; a condition that tells them apart may be missing. Equal values may be shown once.
Legend:
MIA rat model of OA = assay: MIA trial 2 histopathology (same doses as dRS test); type: in vivo; details: group mean; tacrolimus 0.3 mg/kg, other drugs single dose
Protocol: Following functional testing in the first and second MIA trials, femurs were fixed in paraformaldehyde, processed, sectioned, stained with hematoxylin and eosin or Safranin O at Premier Laboratory (Longmont, CO, USA), and analyzed by a veterinary pathologist. For MIA trial 1, sections were evaluated for the percentage area of chondrocyte necrosis and/or proteolytic degeneration using a 5-point scale with 0 = none; 1 being <10 %; 2 = 10–30 %; 3 = 30–60 %; 4 = 60–90 %; and 5 being >90 %. Other characteristics of inflammation, proliferation, and integrity of the synovium, subchondral bone, and articular cartilage were scored as normal, minimal, mild, moderate, marked, or increased or decreased when severity was not graded. MIA trial 2 was measured similarly and then cross-checked according to the methods used for MIA trial 3 (see text below).
For MIA trial 3, joints were fixed and toluidine blue–stained sections of the rat knees were comprehensively analyzed from test and control subjects as detailed in Additional file 1. Briefly, a 5-point cartilage matrix score was derived based upon (1) approximate percentage of total loss of articular chondrocytes for each of four articular surfaces, (2) estimated proteoglycan loss (via Safranin O staining), and (3) loss of interstitial matrix. Chondrocyte necrosis and proteolytic degeneration of the femurs were scored on a 5-point scale as in trial 1. A femoral cartilage degeneration score and a three-zone sum of the tibial cartilage degeneration scores (mean of three levels) were also summed to create a total cartilage degeneration score. The mean osteophyte score for each joint was added to this value to create a total joint score with matrix. Other parameters assessed included synovial membrane inflammation and proliferation. Representative images from each group were also collected (see, e.g., Fig. 4 and Additional file 1: Fig. S55, Trial 3).
The histopathology for the first MIA trial was performed by Premier Laboratories (Dr. Michael Hawes, APS, Pathologist). Treatments were masked during the assessment. Chondrocyte necrosis and proteolytic degeneration of the femurs were scored on a 5 point scale with 0 = None; 1 = <10%; […]
proteoglycan content (safranin O staining), synovial membrane inflammation and proliferation, subchondral bone, and articular cartilage (as indicated in Supplementary methods). Characteristics within these categories were scored as normal, minimal, mild, moderate, marked, or +/- when severity was not graded. Slides from Trial 2 were further reviewed by Dr. Bendele using the analytical method described below for the MMT/MCLT model to confirm any conclusions.
For the histopathology of the MIA model in Trial 3, completed by Bolder BioPATH (and Dr.
Bendele), a tolouidine blue stained slide containing both halves of the joint was comprehensively analyzed from test and control subjects. Approximate % of total loss of articular chondrocytes, loss of proteoglycan and loss of collagenous matrix were determined for each articular surface (medial tibial plateau (MTP), lateral tibial plateau (LTP), medial femoral condyle (MFC), and lateral femoral condyle (LFC). Chondrocyte loss was quantified by estimating the area of cartilage in which there were no apparently viable chondrocytes and proteoglycan loss was quantified by estimating differences in intensity of toluidine blue matrix staining. Loss of interstitial matrix was an indication of disruption and diminished type II collagen. Based on the mean % loss for the four surfaces in these parameters, a five point matrix score was utilized with the subchondral bone resorption, subchondral bone sclerosis and osteophyte scores to achieve a total joint score.
Histopathology MMT/MCLT Model

MMT/MCLT rat model of OA = assay: MMT/MCLT trial 1 histopathology (same doses); type: in vivo; details: low or only dose
In short: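 Rat knee joints were sectioned in 200-μm steps and stained with toluidine blue. Tibial cartilage degeneration was scored on a 5-point scale in three zones and summed with femoral scores, plus osteophyte scores, to give a total joint score. Results were averaged over three sections.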

COc1cc(/C=C/C(=O)CC(=O)/C=C/c2ccc(O)c(OC)c2)ccc1O [Curcumin, Diferuloylmethane]
Bone resorption score (MIA rat model of OA): 4.8
Bone resorption, percent of surface, LFC (MIA rat model of OA): 100%
Bone resorption, percent of surface, LTP (MIA rat model of OA): 100%
Bone resorption, percent of surface, MFC (MIA rat model of OA): 88%
Bone resorption, percent of surface, MTP (MIA rat model of OA): 90%
Bone resorption, percent of surface, mean (MIA rat model of OA): 94%
Cartilage matrix damage score (MIA rat model of OA): 5.0 and 5.0 ± 0.0
Mean of all cartilage loss (MIA rat model of OA): 89%
Osteophyte measure (MIA rat model of OA): 1000.0 µm
Osteophyte score (MIA rat model of OA): 4.8
Subchondral bone sclerosis score (MIA rat model of OA): 0.0
Total joint score w/o matrix (MIA rat model of OA): 9.5
Total joint score with matrix (MIA rat model of OA): 14.5 and 14.5 ± 0.3
Bone score (MMT/MCLT rat model of OA; mean): 3.13
Femoral cartilage degeneration score (MMT/MCLT rat model of OA; mean): 2.21 and 2.21 ± 0.60
Tibial cartilage degeneration score, 3-zone total (MMT/MCLT rat model of OA; mean): 6.50
Tibial cartilage degeneration score, zone 1 (MMT/MCLT rat model of OA; mean): 4.08
Tibial cartilage degeneration score, zone 2 (MMT/MCLT rat model of OA; mean): 2.38
Tibial cartilage degeneration score, zone 3 (MMT/MCLT rat model of OA; mean): 0.04
Tibial cartilage degeneration width, significant (MMT/MCLT rat model of OA; mean): 741.67 µm
Tibial cartilage degeneration width, total (MMT/MCLT rat model of OA; mean): 1312.50 µm
Tibial osteophyte measure (MMT/MCLT rat model of OA; mean): 592.92 µm
Tibial osteophyte score (MMT/MCLT rat model of OA; mean): 4.25
Total joint score (MMT/MCLT rat model of OA; mean): 12.96 and 12.96 ± 0.62
Total joint score w/o femur (MMT/MCLT rat model of OA; mean): 10.75
% decrease, bone score (MMT/MCLT rat model of OA; vs saline group): 4%
% decrease, femoral cartilage degeneration score (MMT/MCLT rat model of OA; vs saline group): -20%
% decrease, osteophyte measure (MMT/MCLT rat model of OA; vs saline group): -16%
% decrease, osteophyte score (MMT/MCLT rat model of OA; vs saline group): -9%
% decrease, significant degeneration width (MMT/MCLT rat model of OA; vs saline group): -2%
% decrease, tibial score 3-zone total (MMT/MCLT rat model of OA; vs saline group): 1%
% decrease, tibial score zone 1 (MMT/MCLT rat model of OA; vs saline group): 5%
% decrease, tibial score zone 2 (MMT/MCLT rat model of OA; vs saline group): -8%
% decrease, tibial score zone 3 (MMT/MCLT rat model of OA; vs saline group): 0%
% decrease, total degeneration width (MMT/MCLT rat model of OA; vs saline group): 0%
% decrease, total joint score (MMT/MCLT rat model of OA; vs saline group): -5%
% decrease, total joint score w/o femur (MMT/MCLT rat model of OA; vs saline group): -3%
